# Measured values: patent US9957270B2, “Fused pyrimidine-based hydroxamate derivatives” (Agency for Science, Technology and Research, priority 2014, dated 2018)
# Like-named read-outs stand apart in the source and are kept apart here.
# Experiments:
# Ramos = test: Anti-proliferative assay (cellular IC50), Ramos; conditions: Homo sapiens, read-out: In Vitro Cellular IC50 Ramos
# Method: (§1) Cells were cultivated at 37° C., 5% CO2 in media containing 10% FBS and 2 mM glutamine Cells were routinely monitored with MycoAlert™ PLUS Mycoplasma Detection Kit (Lonza Walkersville, Inc.) to make sure they were mycoplasma free. Antibiotics (100 U/mL of penicillin and 100 μg/mL of streptomycin) were only added to the media used for compound dilution and cells in 96-well assay plates.
# (§2) For a typical screening experiment, cells (100 μL/well) are inoculated into 96 well microtiter plates at plating densities ranging from 2,000 to 30,000 cells/well depending on the doubling time of individual cell lines and assay linearity. […] Suspension cells are treated with test compounds immediately after cell inoculation.
# (§3) Test compounds are serially diluted (3-fold or 4-fold, 8-concentration) using the same media and added to the plates (15 to 25 μL/well). After 72 h of cultivation, the plates are assayed for cell cytotoxicity/viability by using the following two methods.
# (§4) Cells in plates are fixed with cold trichloroacetic acid (TCA) (50% w/v in DI water, 1/4 volume of the medium in each well), and incubated at 4° C. for 1 h (adherent cells) or 2 h (suspension cells). The plates are washed 5 times (tap water×3, DI water×2) and air-dried. SRB solution 0.4% (w/v) in 1% acetic acid is added to each well (60 μL/well) and the plates are incubated at room temperature for 30 min, then washed with 1% acetic acid solution 4 times, and air-dried.
# (§5) The plates are added CellTiter-Glo® Reagent (95 μL/well) and read the luminescence on a BioTek H4 reader per manufacture's protocol.
# (§6) The raw data are processed using BioTek's Software Gen5 (v2.03.01) to generate inhibitory IC50 values.
# SUP-B15 = test: Anti-proliferative assay (cellular IC50), SUP-B15; conditions: Homo sapiens, SUP-B15, read-out: In Vitro Cellular IC50 SUP-B15
# Method: as §1, §2, §3, §4, §5, §6
# Pfeiffer = test: Anti-proliferative assay (cellular IC50), Pfeiffer; conditions: Homo sapiens, read-out: In Vitro Cellular IC50 Pfeiffer
# Method: as §1, §2, §3, §4, §5, §6
# MOLT-4 = test: Anti-proliferative assay (cellular IC50), MOLT-4; conditions: Homo sapiens
# Method: as §1, §2, §3, §4, §5, §6
# 4T1 = test: cells; conditions: Mus musculus, 4T1, read-out: In Vitro Cellular IC50 4T1
# Method: as §1, §2, §3, §4, §5, §6
# MDA-MB-468 = test: Anti-proliferative assay (cellular IC50), MDA-MB-468; conditions: Homo sapiens, MDA-MB-468, read-out: In Vitro Cellular IC50 MDA-MB-468
# Method: as §1, §2, §3, §4, §5, §6
# BxPC-3 = test: Anti-proliferative assay (cellular IC50), BxPC-3; conditions: Homo sapiens, BXPC-3, read-out: In Vitro Cellular IC50 BxPC-3
# Method: as §1, §2, §3, §4, §5, §6
# U87 MG = test: Anti-proliferative assay (cellular IC50), U87 MG; conditions: Homo sapiens, U-87 MG, read-out: In Vitro Cellular IC50 U87 MG
# Method: as §1, §2, §3, §4, §5, §6
# NCI-H522 = test: Anti-proliferative assay (cellular IC50), NCI-H522; conditions: Homo sapiens, NCI-H522, read-out: In Vitro Cellular IC50 NCI-H522
# Method: as §1, §2, §3, §4, §5, §6
# PANC-1 = test: Anti-proliferative assay (cellular IC50), PANC-1; conditions: Homo sapiens, PANC-1, read-out: In Vitro Cellular IC50 PANC-1
# Method: as §1, §2, §3, §4, §5, §6
# MDA-MB-231 = test: Anti-proliferative assay (cellular IC50), MDA-MB-231; conditions: Homo sapiens, MDA-MB-231, read-out: In Vitro Cellular IC50 MDA-MB-231
# Method: as §1, §2, §3, §4, §5, §6
# U138MG = test: Anti-proliferative assay (cellular IC50), U138MG; conditions: Homo sapiens, U138-MG, read-out: In Vitro Cellular IC50 U138MG
# Method: as §1, §2, §3, §4, §5, §6
# MDA-MB-436 = test: Anti-proliferative assay (cellular IC50), MDA-MB-436; conditions: Homo sapiens, MDA-MB-436, read-out: In Vitro Cellular IC50 MDA-MB-436
# Method: as §1, §2, §3, §4, §5, §6
# MCF7 = test: Anti-proliferative assay (cellular IC50), MCF7; conditions: Homo sapiens
# Method: as §1, §2, §3, §4, §5, §6
# HEL9217 = test: Anti-proliferative assay (cellular IC50), HEL9217; conditions: Homo sapiens, HEL 92.1.7, read-out: In Vitro Cellular IC50 HEL9217
# Method: as §1, §2, §3, §4, §5, §6
# ACHN = test: Anti-proliferative assay (cellular IC50), ACHN; conditions: Homo sapiens, read-out: In Vitro Cellular IC50 ACHN
# Method: as §1, §2, §3, §4, §5, §6
# SK-HEP1 = test: Anti-proliferative assay (cellular IC50), SK-HEP1; conditions: Homo sapiens, SK-HEP1, read-out: In Vitro Cellular IC50 SK-HEP1
# Method: as §1, §2, §3, §4, §5, §6
# COLO 205 = test: cells; conditions: Homo sapiens
# Method: as §1, §2, §3, §4, §5, §6
# PC-3 = test: Anti-proliferative assay (cellular IC50), PC-3; conditions: Homo sapiens
# K-562 = test: Anti-proliferative assay (cellular IC50), K-562; conditions: Homo sapiens
# HL-60 = test: Anti-proliferative assay (cellular IC50), HL-60; conditions: Homo sapiens, HL-60, read-out: In Vitro Cellular IC50 HL-60
# Method: as §1, §2, §3, §4, §5, §6
# A375 = test: Anti-proliferative assay (cellular IC50), A375; conditions: Homo sapiens, A-375, read-out: In Vitro Cellular IC50 A375
# Method: as §1, §2, §3, §4, §5, §6
# A549 = test: Anti-proliferative assay (cellular IC50), A549; conditions: Homo sapiens, A549, read-out: In Vitro Cellular IC50 A549
# Method: as §1, §2, §3, §4, §5, §6
# RPMI-8226 = test: Anti-proliferative assay (cellular IC50), RPMI-8226; conditions: Homo sapiens, RPMI-8226, read-out: In Vitro Cellular IC50 RPMI-8226
# Method: as §1, §2, §3, §4, §5, §6
# HepG2 = test: Anti-proliferative assay (cellular IC50), HepG2; conditions: Homo sapiens
# BT474 = test: Anti-proliferative assay (cellular IC50), BT474; conditions: Homo sapiens, BT-474, read-out: In Vitro Cellular IC50 BT474
# Method: as §1, §2, §3, §4, §5, §6
# HCT 116 = test: cells; conditions: Homo sapiens
# Method: as §1, §2, §3, §4, §5, §6
# MV-4-11 = test: cells; conditions: Homo sapiens
# Method: as §1, §2, §3, §4, §5, §6
# [1] = MOLT-4, 72 h, read-out: In Vitro Cellular IC50 MOLT-4
# [2] = MOLT-4, read-out: In Vitro Cellular IC50 MOLT-4
# [3] = MCF7, 72 h, read-out: In Vitro Cellular IC50 MCF7
# [4] = MCF7, read-out: In Vitro Cellular IC50 MCF7
# [5] = COLO 205, 72 h, read-out: In Vitro Cellular IC50 COLO 205
# [6] = COLO 205, read-out: In Vitro Cellular IC50 COLO 205
# [7] = PC-3, 72 h, read-out: In Vitro Cellular IC50 PC-3
# [8] = PC-3, read-out: In Vitro Cellular IC50 PC-3
# [9] = K562, 72 h, read-out: In Vitro Cellular IC50 K-562
# [10] = K562, read-out: In Vitro Cellular IC50 K-562
# [11] = HepG2, 72 h, read-out: In Vitro Cellular IC50 HepG2
# [12] = HepG2, read-out: In Vitro Cellular IC50 HepG2
# [13] = HCT-116, 72 h, read-out: In Vitro Cellular IC50 HCT 116
# [14] = HCT-116, read-out: In Vitro Cellular IC50 HCT 116
# [15] = MV4-11, 72 h, read-out: In Vitro Cellular IC50 MV-4-11
# [16] = MV4-11, read-out: In Vitro Cellular IC50 MV-4-11
Compound,IC50 (Ramos) [nM],IC50 (SUP-B15) [nM],IC50 (Pfeiffer) [nM],IC50 (MOLT-4; [1]) [nM],IC50 (MOLT-4; [2]) [nM],IC50 (4T1) [nM],IC50 (MDA-MB-468) [nM],IC50 (BxPC-3) [nM],IC50 (U87 MG) [nM],IC50 (NCI-H522) [nM],IC50 (PANC-1) [nM],IC50 (MDA-MB-231) [nM],IC50 (MDA-MB-436) [nM],IC50 (MCF7; [3]) [nM],IC50 (MCF7; [4]) [nM],IC50 (ACHN) [nM],IC50 (SK-HEP1) [nM],IC50 (COLO 205; [5]) [nM],IC50 (COLO 205; [6]) [nM],IC50 (PC-3; [7]) [nM],further results
CC(C)n1cnc2c(-c3cccc(OCCCC(=O)NO)c3)nc(N3CCOCC3)nc21 [compound 1],< 500,< 500,< 500,< 500,< 500,500 to 2000,500 to 2000,500 to 2000,500 to 2000,500 to 2000,500 to 2000,500 to 2000,500 to 2000,500 to 2000,500 to 2000,500 to 2000,500 to 2000,500 to 2000,500 to 2000,500 to 2000,IC50 (U138MG): 500 to 2000 nM; IC50 (HEL9217): 500 to 2000 nM; IC50 (PC-3; [8]): 500 to 2000 nM; IC50 (K-562; [9]): 500 to 2000 nM; IC50 (K-562; [10]): 500 to 2000 nM; IC50 (HL-60): < 500 nM; IC50 (A375): 500 to 2000 nM; IC50 (A549): 500 to 2000 nM; IC50 (RPMI-8226): < 500 nM; IC50 (HepG2; [11]): 500 to 2000 nM; IC50 (HepG2; [12]): 500 to 2000 nM; IC50 (BT474): 500 to 2000 nM; IC50 (HCT 116; [13]): < 500 nM; IC50 (HCT 116; [14]): < 500 nM; IC50 (MV-4-11; [15]): < 500 nM; IC50 (MV-4-11; [16]): < 500 nM
"CS(=O)(=O)N1CCN(Cc2cc3nc(-c4cccc5[nH]ncc45)nc(N4CCOCC4)c3s2)CC1 [GDC-0941, reference compound]",2000 to 10000,2000 to 10000,< 500,< 500,< 500,2000 to 10000,2000 to 10000,500 to 2000,2000 to 10000,> 10000,500 to 2000,> 10000,500 to 2000,< 500,< 500,500 to 2000,2000 to 10000,500 to 2000,500 to 2000,500 to 2000,IC50 (U138MG): 500 to 2000 nM; IC50 (HEL9217): 2000 to 10000 nM; IC50 (PC-3; [8]): 500 to 2000 nM; IC50 (K-562; [9]): > 10000 nM; IC50 (K-562; [10]): > 10000 nM; IC50 (HL-60): 500 to 2000 nM; IC50 (A375): 500 to 2000 nM; IC50 (A549): < 500 nM; IC50 (RPMI-8226): 2000 to 10000 nM; IC50 (HepG2; [11]): > 10000 nM; IC50 (HepG2; [12]): > 10000 nM; IC50 (BT474): < 500 nM; IC50 (HCT 116; [13]): 500 to 2000 nM; IC50 (HCT 116; [14]): 2000 to 10000 nM; IC50 (MV-4-11; [15]): 500 to 2000 nM; IC50 (MV-4-11; [16]): 500 to 2000 nM
CCn1c(CN(C)Cc2ccc(C(=O)NO)cc2)nc2c(N3CCOCC3)nc(-c3cnc(N)nc3)nc21 [compound 7],500 to 2000,< 500,< 500,500 to 2000,500 to 2000,2000 to 10000,< 500,500 to 2000,2000 to 10000,2000 to 10000,2000 to 10000,2000 to 10000,2000 to 10000,< 500,< 500,2000 to 10000,500 to 2000,500 to 2000,500 to 2000,500 to 2000,IC50 (PC-3; [8]): 500 to 2000 nM; IC50 (K-562; [9]): 500 to 2000 nM; IC50 (K-562; [10]): 500 to 2000 nM; IC50 (HL-60): 500 to 2000 nM; IC50 (A375): 2000 to 10000 nM; IC50 (RPMI-8226): 500 to 2000 nM; IC50 (HepG2; [11]): 500 to 2000 nM; IC50 (HepG2; [12]): 500 to 2000 nM; IC50 (BT474): < 500 nM; IC50 (HCT 116; [13]): 500 to 2000 nM; IC50 (HCT 116; [14]): 500 to 2000 nM; IC50 (MV-4-11; [15]): 500 to 2000 nM; IC50 (MV-4-11; [16]): 500 to 2000 nM
